The test has as its system CD2F1 mice, L1210 leukemia ip, survival T/C. The experiment in a line: NCI In Vivo Anticancer Drug Screen. Data for tumor model L1210 Leukemia (intraperitoneal) in CD2F1 (CDF1) mice. To be noted: higher = longer survival. In outline:
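Vehicle-treated tumor-bearing mice served as controls (C) for compound-treated mice (T). Reported figure is T divided by C.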

[1] abbreviates: endpoint: mean survival time, dose: 25.0 mg/kg/injection, schedule: Q01DX009 (ip), vehicle: saline.
Setting [2] is: endpoint: mean survival time, dose: 50.0 mg/kg/injection, schedule: Q01DX009 (ip), vehicle: saline.
Setting [3] is: endpoint: mean survival time, dose: 100.0 mg/kg/injection, schedule: Q04DX003 (ip), vehicle: saline.
Setting [4] is: endpoint: mean survival time, dose: 200.0 mg/kg/injection, schedule: Q04DX003 (ip), vehicle: saline.
Where [5] appears, read: endpoint: mean survival time, dose: 400.0 mg/kg/injection, schedule: Q04DX003 (ip), vehicle: saline.
The mark [6] stands for this setting: endpoint: mean survival time, dose: 100.0 mg/kg/injection, schedule: Q04DX003 (ip), vehicle: saline with Tween-80.
[7] abbreviates: endpoint: mean survival time, dose: 200.0 mg/kg/injection, schedule: Q04DX003 (ip), vehicle: saline with Tween-80.
Where [8] appears, read: endpoint: mean survival time, dose: 400.0 mg/kg/injection, schedule: Q04DX003 (ip), vehicle: saline with Tween-80.
[9] abbreviates: endpoint: mean survival time, dose: 50.0 mg/kg/injection, schedule: Q01DX009 (ip), vehicle: saline with Tween-80.
Setting [10] is: endpoint: mean survival time, dose: 200.0 mg/kg/injection, schedule: Q01DX009 (ip), vehicle: saline with Tween-80.
[11] abbreviates: endpoint: mean survival time, dose: 100.0 mg/kg/injection, schedule: Q01DX009 (ip), vehicle: saline with Tween-80.
Setting [12] is: endpoint: mean survival time, dose: 400.0 mg/kg/injection, schedule: Q01DX009 (ip), vehicle: saline with Tween-80.

“And” between values parts separate entries of the source, which are not always exact repeats. Equal entries are not always repeated. Toxic doses and inconclusive results are not listed.

Regarding `CN(C)N=Nc1ccc(C(=O)O)cc1`, the T/C runs as follows: under setting [1], 112 % of control; (endpoint: mean survival time, dose: 25.0 mg/kg/injection, schedule: Q04DX003 (ip), vehicle: saline) 96 % of control; (endpoint: mean survival time, dose: 45.0 mg/kg/injection, schedule: Q01DX009 (ip), vehicle: saline) 124 % of control; under setting [2], 124 % of control; (endpoint: mean survival time, dose: 50.0 mg/kg/injection, schedule: Q04DX003 (ip), vehicle: saline) 102 % of control; (endpoint: mean survival time, dose: 65.0 mg/kg/injection, schedule: Q01DX009 (ip), vehicle: saline) 154 % of control. In addition, the T/C is, setting by setting: (endpoint: mean survival time, dose: 100.0 mg/kg/injection, schedule: Q01DX009 (ip), vehicle: saline) 172 % of control; under setting [3], 109 % of control; (endpoint: mean survival time, dose: 200.0 mg/kg/injection, schedule: Q01DX009 (ip), vehicle: saline) 90 % of control; under setting [4], 123 % of control; under setting [5], 103 % of control; (endpoint: median survival time, dose: 25.0 mg/kg/injection, schedule: Q01DX005 (ip), vehicle: saline) 122 % of control. Besides, the T/C reads like this: (endpoint: median survival time, dose: 36.0 mg/kg/injection, schedule: Q01DX005 (ip), vehicle: saline) 116 % of control; (endpoint: median survival time, dose: 50.0 mg/kg/injection, schedule: Q01DX005 (ip), vehicle: saline) 124 % of control; (endpoint: median survival time, dose: 100.0 mg/kg/injection, schedule: Q01DX005 (ip), vehicle: saline) 151 % of control and 170 % of control; (endpoint: median survival time, dose: 166.6 mg/kg/injection, schedule: Q01DX005 (ip), vehicle: saline) 179 % of control; (endpoint: median survival time, dose: 200.0 mg/kg/injection, schedule: Q01DX005 (ip), vehicle: saline) 112 % of control.
For `OCN(CO)c1ccc2c(c1)Cc1cc(Cl)ccc1-2`, the T/C by setting is: under setting [3], 97 % of control; under setting [4], 100 % of control; under setting [5], 91 % of control.
Take `CCOC(=O)CCC(NC(=O)c1ccc(N(C)S(=O)(=O)c2ccc(C)cc2)c(Cl)c1Cl)C(=O)OCC` (stereo not given): the T/C by setting is: under setting [6], 105 % of control; under setting [7], 91 % of control; under setting [8], 94 % of control.
Turning to `CCOc1ccc(-n2c(=O)c(N=Nc3ccccc3)c(O)n(-c3ccc(C)cc3)c2=S)cc1`, the T/C was 97 % of control (endpoint: mean survival time, dose: 100.0 mg/kg/injection, schedule: Q01DX001 (ip), vehicle: saline with Tween-80) and 89 % of control (endpoint: mean survival time, dose: 200.0 mg/kg/injection, schedule: Q01DX001 (ip), vehicle: saline with Tween-80).
Consider `NC(=O)N/N=C/c1cccs1`, for which the T/C under setting [9] is 89 % of control, the T/C under setting [10] is 97 % of control, the T/C under setting [7] is 87 % of control and the T/C under setting [8] was 91 % of control.
Regarding `O=C(OCC(I)CC(F)(F)C(F)(F)F)c1ccc2cc(C(=O)OC(I)CC(F)(F)C(F)(F)F)ccc2c1` (stereo not given), the T/C (endpoint: mean survival time, dose: 75.0 mg/kg/injection, schedule: Q01DX001 (ip), vehicle: other) was 101 % of control; the T/C (endpoint: mean survival time, dose: 150.0 mg/kg/injection, schedule: Q01DX001 (ip), vehicle: other) was 91 % of control; the T/C (endpoint: mean survival time, dose: 300.0 mg/kg/injection, schedule: Q01DX001 (ip), vehicle: other) is 97 % of control.
For the compound `COc1ccc(N2CSC(=S)N(c3ccc(OC)cc3)C2)cc1`, under “endpoint: mean survival time, dose: 100.0 mg/kg/injection, schedule: Q04DX003 (ip), vehicle: other”, the T/C is 94 % of control.
In the case of `[Cl][Pt+2]([Cl])([Cl])[Cl].[NH-]Cc1ccccc1C[NH-]`, the T/C was 110 % of control (endpoint: mean survival time, dose: 5.0 mg/kg/injection, schedule: Q04DX003 (ip), vehicle: saline with Tween-80); 118 % of control (endpoint: mean survival time, dose: 10.0 mg/kg/injection, schedule: Q04DX003 (ip), vehicle: saline with Tween-80); 120 % of control (endpoint: mean survival time, dose: 20.0 mg/kg/injection, schedule: Q04DX003 (ip), vehicle: saline with Tween-80); 86 % of control (endpoint: mean survival time, dose: 40.0 mg/kg/injection, schedule: Q04DX003 (ip), vehicle: saline with Tween-80).
As to `Cc1cccc([N+](=O)[O-])c1-c1ccccc1C(=O)O`, the T/C is 101 % of control (endpoint: mean survival time, dose: 100.0 mg/kg/injection, schedule: Q01DX001 (ip), vehicle: Klucel (hydroxypropylcellulose) (HPC)); 101 % of control (endpoint: mean survival time, dose: 200.0 mg/kg/injection, schedule: Q01DX001 (ip), vehicle: Klucel (hydroxypropylcellulose) (HPC)); 101 % of control (endpoint: mean survival time, dose: 400.0 mg/kg/injection, schedule: Q01DX001 (ip), vehicle: Klucel (hydroxypropylcellulose) (HPC)).
With `[N-]=[N+]=NCCCCCCCCCCN=[N+]=[N-]`, the T/C was 98 % of control (endpoint: mean survival time, dose: 75.0 mg/kg/injection, schedule: Q01DX001 (ip), vehicle: saline); 101 % of control (endpoint: mean survival time, dose: 150.0 mg/kg/injection, schedule: Q01DX001 (ip), vehicle: saline); 98 % of control (endpoint: mean survival time, dose: 300.0 mg/kg/injection, schedule: Q01DX001 (ip), vehicle: saline).
On to `O=C1OC(c2ccccc2)(c2ccccn2)c2ccccc21` (stereo not given), for which the T/C was 90 % of control under setting [6], 88 % of control under setting [7] and 91 % of control under setting [8].
As to `COc1ccc(/C=C(/C)C(=O)c2ccccc2)cc1`, the T/C was 97 % of control (endpoint: mean survival time, dose: 100.0 mg/kg/injection, schedule: Q01DX009 (ip), vehicle: Klucel (hydroxypropylcellulose) (HPC)); 97 % of control (endpoint: mean survival time, dose: 200.0 mg/kg/injection, schedule: Q01DX009 (ip), vehicle: Klucel (hydroxypropylcellulose) (HPC)); 91 % of control (endpoint: mean survival time, dose: 400.0 mg/kg/injection, schedule: Q01DX009 (ip), vehicle: Klucel (hydroxypropylcellulose) (HPC)).
`CC(=O)N(/C=C\C=C\c1sc2ccccc2[n+]1C)c1ccccc1`: the T/C is 108 % of control (endpoint: mean survival time, dose: 12.5 mg/kg/injection, schedule: Q01DX009 (ip), vehicle: other) and 115 % of control (endpoint: mean survival time, dose: 25.0 mg/kg/injection, schedule: Q01DX009 (ip), vehicle: other).
For the compound `CC(Br)C(=O)c1ccc2ncccc2c1` (stereo not given), the T/C by setting is: (endpoint: mean survival time, dose: 12.5 mg/kg/injection, schedule: Q04DX002 (ip), vehicle: saline + alcohol) 98 % of control; (endpoint: mean survival time, dose: 25.0 mg/kg/injection, schedule: Q04DX002 (ip), vehicle: saline + alcohol) 101 % of control; (endpoint: mean survival time, dose: 50.0 mg/kg/injection, schedule: Q04DX002 (ip), vehicle: saline + alcohol) 95 % of control.
For the compound `CC(C)(SC(c1ccccc1)(c1ccccc1)c1ccccc1)C(N)C(=O)O` (stereo not given), the T/C is 106 % of control under setting [1] and 103 % of control under setting [2].
Take `O=C(COc1cccc(Cl)c1)NCc1ccc(Cl)cc1`: the T/C under setting [6] was 99 % of control, the T/C under setting [7] was 101 % of control and the T/C under setting [8] is 91 % of control.
For `CCCCCCCCCCCCCCCCCCNC(=O)Nc1ccc(CC)cc1`, the T/C is, setting by setting: under setting [11], 98 % of control; under setting [6], 94 % of control; under setting [10], 109 % of control; under setting [7], 89 % of control; under setting [12], 110 % of control; under setting [8], 93 % of control.
In the case of `CS(=O)(=O)Oc1ccccc1OS(C)(=O)=O`, the T/C is, setting by setting: (endpoint: mean survival time, dose: 50.0 mg/kg/injection, schedule: Q04DX002 (ip), vehicle: saline with Tween-80) 113 % of control; (endpoint: mean survival time, dose: 100.0 mg/kg/injection, schedule: Q04DX002 (ip), vehicle: saline with Tween-80) 113 % of control; (endpoint: mean survival time, dose: 200.0 mg/kg/injection, schedule: Q04DX002 (ip), vehicle: saline with Tween-80) 101 % of control.
Turning to `COC(=O)C(Cc1ccc(O)cc1)NC(=O)C(C)NC(=O)OCc1ccccc1` (stereo not given), the T/C was 92 % of control under setting [11], 93 % of control under setting [10] and 88 % of control under setting [12].
Consider `O=NN(CCCl)C(=O)Oc1ccc(OC(=O)N(CCCl)N=O)cc1`, for which the T/C (endpoint: median survival time, dose: 3.12 mg/kg/injection, schedule: Q01DX009 (ip), vehicle: Klucel (hydroxypropylcellulose) (HPC)) was 104 % of control; the T/C (endpoint: median survival time, dose: 6.25 mg/kg/injection, schedule: Q01DX009 (ip), vehicle: Klucel (hydroxypropylcellulose) (HPC)) was 114 % of control; the T/C (endpoint: median survival time, dose: 12.5 mg/kg/injection, schedule: Q01DX009 (ip), vehicle: Klucel (hydroxypropylcellulose) (HPC)) is 118 % of control; the T/C (endpoint: median survival time, dose: 25.0 mg/kg/injection, schedule: Q01DX009 (ip), vehicle: Klucel (hydroxypropylcellulose) (HPC)) is 113 % of control; the T/C (endpoint: median survival time, dose: 50.0 mg/kg/injection, schedule: Q01DX009 (ip), vehicle: Klucel (hydroxypropylcellulose) (HPC)) was 93 % of control.
In the case of `COC12[C@@H](COC(N)=O)C3=C(C(=O)C(C)=C(NCCSSCCNC4=C(C)C(=O)C5=C(C4=O)C(COC(N)=O)[C@]4(OC)C6[C@@H](CN54)N6C)C3=O)N1C[C@@H]1[C@H]2N1C` (stereo not given in full), the T/C (endpoint: mean survival time, dose: 6.0 mg/kg/injection, schedule: Q01DX001 (ip), vehicle: distilled water + Tween-80) is 114 % of control.
As for `COc1ccc(OCCOC(=O)Nc2ccc(C)c([N+](=O)[O-])c2)cc1`, the T/C was 92 % of control under setting [9], 88 % of control under setting [11] and 92 % of control under setting [10].

These data come from PubChem BioAssay AID256 (DTP/NCI, 2004).
